Measured values from PubChem BioAssay AID2305 (GlaxoSmithKline (GSK), 2010).

system: P. falciparum 3D7 growth, pLDH absorbance; test: blood-stage malaria parasite growth potency – strain 3D7, dose response (AID 2305)

Row | SMILES | IC50 [nM]
1 | CN1CCCC(CN2CCN(Cc3ccc(-c4ccc(-c5nc6ccc(F)cc6[nH]5)cc4)cc3)CC2)C1 (stereo unspecified) | 120
2 | C=CCOC(=O)N1CCC(CNCc2cccc(-c3ccc(-c4nc5ccccc5[nH]4)s3)c2)C1 (stereo unspecified) | 270
3 | CC(C)(C)C(=O)Nc1c(-c2cc(=O)oc3cc4c(cc23)CCC4)oc2ccccc12 | 1260
4 | COc1cccc(CNC(=O)c2cc(CNCc3ccccc3)ccc2-c2cccc(CNCc3ccc(-c4ccccc4)cc3)c2)c1 | 850
5 | O=C(NCCCN1CCC(Cc2ccccc2)CC1)c1cc2c(Cl)nc3ccccc3c2s1 | 740
6 | O=C(O)C1Cc2c([nH]c3ccccc23)C(c2ccc(Cl)cc2Cl)N1 (stereo unspecified) | 950
7 | CC(=O)Nc1ncc(C(=O)Nc2cccc(-c3cccc(-c4nc5ccccc5[nH]4)c3)c2)s1 | 810
8 | CNC(=O)CC(=O)NCCc1ccc(Cl)cc1 | 810
9 | O=C1c2ccccc2-n2c1nc1ccccc1c2=O | 860
10 | Cc1cc(NC(=O)Nc2ccc3nccc(N4CCN(C)CC4)c3c2)ccc1Br | 90
11 | Cc1cccc2[nH]c(-c3ccc(-c4ccc(CN5CCN(c6ccc(C#N)cn6)CC5)cc4)s3)nc12 | 1130
12 | CCc1cn(C)c2c(N3CCCC3=O)cc(C(=O)N[C@@H](Cc3ccccc3)[C@H](O)CNC(C)(C)CCCC(C)C)cc12 | 490
13 | COc1ccc2nccc([C@@H](O)CN3CCC(NCc4nc5c(F)cc(F)cc5[nH]4)CC3)c2c1 | 570
14 | COc1cc(Nc2ccnc3ccc(C(C)(C)C)cc23)cc(OC)c1OC | 610
15 | CCN(CC)CCNC(=O)c1ccc(NC(=O)c2cc(-c3ccncc3)nc3ccccc23)cc1 | 770
16 | O=C(NC1CCCCCC1)[C@@H]1CCCN1C(=O)c1ccc(O)c(-c2ccc(Cl)c(Cl)c2)c1 | 340
17 | NC(=O)c1cnc2cc(-c3ccoc3)ccc2c1Nc1ccc(NC(=O)Nc2ccccc2Cl)cc1 | 540
18 | N#CCCN1CCN(Cc2cccc(-c3ccc(-c4nc5ccccc5[nH]4)cc3)c2)CC1 | 1020
19 | CCc1c(C(=O)NC2CCC(N3CCC(c4ccccc4C)CC3)CC2)[nH]c2ccc(Br)cc12 (stereo unspecified) | 930
20 | COc1cc(C=CC(=O)N2CCC3(CC2)CC(=O)c2ccccc2O3)cc(OC)c1OC | 760
21 | COc1ccccc1C(=O)Nc1ccc(Nc2nc(C)cc(N3CCOCC3)n2)cc1 | 530
22 | CCN(CC)CCCN(CCCN(CC)CC)c1cc(C)nc(Nc2ccc3cc(Br)ccc3c2)n1 | 570
23 | O=C(/C=C/c1ccc(Cl)c(Cl)c1)N1CCC(CN2CCC(c3c[nH]c4ccc(O)cc34)CC2)CC1 | 780
24 | Cc1cc(N)nc2ccc(-c3ccc(CN)cc3)cc12 | 620

Row | SMILES | IC50 [nM]
25 | COc1cccc(OC)c1C(=O)N1CCC2(CC1)C(=O)N(CC(=O)NC1CCCCC1)CN2c1ccccc1 | 950
26 | Nc1nc(N)c2c(ccc3c2ccn3Cc2ccccn2)n1 | 10
27 | O=C1C(c2ccccc2)=C(Nc2cccc(OC(F)(F)C(F)F)c2)c2ccccc21 | 180
28 | CCN(CC)CCN(Cc1ccc(-c2ccc(C(F)(F)F)cc2)cc1)C(=O)Cn1c(CCc2cccc(F)c2F)nc(=O)c2cc(F)ccc21 | 830
29 | Cc1cccc(CN2CCCN(Cc3ccc(C(=O)Nc4ccc(Cl)cc4)cc3)CC2)c1 | 600
30 | COc1ccc(Cn2c(Nc3cccc(C(F)(F)F)c3)nc3ccc(C(=O)NCCN4CCCC4)cc32)cc1Cl | 750
31 | Cc1cc(C(=O)NC2CCN(CC3(c4ccccc4)CCCCC3)CC2)on1 | 260
32 | CS(=O)(=O)CCNCc1nc(-c2ccc3c(Nc4ccc(Oc5ccccn5)cc4)ccnc3c2)cs1 | 680
33 | CCC1(C)CC(CCNCc2ccccc2O)(c2ccc(C)cc2)CCO1 (stereo unspecified) | 40
34 | COc1cc2c(cc1S(=O)(=O)c1ccc(NC(=O)c3cc4ccccc4s3)cc1)CCN(C)CC2 | 840
35 | O=C(NCCc1ccccc1)N(Cc1ccccc1-c1ccc(CNC2CCCC2)cc1)C1CCN(Cc2ccccc2)CC1 | 1130
36 | Oc1c(C(Nc2nc3ccccc3s2)c2ccc(OC(F)F)cc2)ccc2cccnc12 (stereo unspecified) | 570
37 | CC1CN=C(c2ccc(NC(=O)c3ccc(C(=O)Nc4ccc(C5=NCC(C)N5)cc4)cc3)cc2)N1 (stereo unspecified) | 30
38 | c1ccc(-c2csc(Nc3nc4cc5c(cc4s3)OCO5)n2)nc1 | 580
39 | O=S(=O)(NCCCN1CCOCC1)c1ccc2nccc(Nc3ccc(Oc4ccccc4)cc3)c2c1 | 850
40 | Cc1cccc(NC(=O)Nc2cccc(-c3ccc(-c4nc5ccc(C(F)(F)F)cc5[nH]4)cc3)c2)c1 | 900
41 | COc1cc(C(=O)NC2CC(C)(C)N(C)C(C)(C)C2)ccc1-c1nc2cc(Cl)c(Cl)cc2[nH]1 | 790
42 | Cn1cncc1C(=O)Nc1cccc(-c2cccc(-c3nc4ccccc4[nH]3)c2)c1 | 640
43 | CCN(CC)CCNc1ccnc2[nH]c3ccc(Cl)cc3c12 | 240
44 | CC(C)(C)NCCN(Cc1ccc(-c2ccc(C(F)(F)F)cc2)cc1)C(=O)Cn1c(CCc2cccc(F)c2F)nc(=O)c2ccccc21 | 760
45 | Cc1cc(NN=Cc2ccc(F)cc2)c2cc(F)ccc2n1 | 640
46 | CCOC(=O)c1ccc(NC(=O)NCCCC2CCCN(CCCCCNC(=O)/C=C/c3ccc(Cl)c(Cl)c3)C2)cc1 (stereo unspecified) | 860
47 | CN(C)CCNCc1ccc(-c2ccc3c(Nc4ccc(F)cc4Cl)ccnc3c2)o1 | 140
48 | O=C(NCCCCCN1CCC(c2c[nH]c3ccccc23)CC1)Nc1cccc(Br)c1 | 1110

Row | SMILES | IC50 [nM]
49 | O=C(/C=C/c1ccc(Cl)c(Cl)c1)NCCCCCCN1CCN(C(=O)Nc2ccc(OC(F)F)cc2)CC1 | 680
50 | COc1cc(Nc2ccnc3ccc(C(F)(F)F)cc23)ccc1OCCCc1ccccc1 | 770
51 | Nc1ccc(-c2cc(Cl)cc(Cl)c2)cc1-c1cc2ccccc2[nH]1 | 690
52 | CCCc1cc(NC2CCN(C)CC2)nc(Nc2ccc(F)cc2)n1 | 800
53 | CCCCCC(=O)NCC(NCCCNc1cc(=O)c2ccccc2[nH]1)c1cc(Br)cc(Br)c1 (stereo unspecified) | 650
54 | Cc1cc(N2CCCC2)nc(Nc2ccc(NC(=O)CC(C)C)cc2)n1 | 840
55 | C[C@@H]1CN(c2nc(NCCc3ccc(O)cc3)nc(NCc3ccccc3-c3ccc(C(F)(F)F)cc3)n2)C[C@H](C)N1 | 530
56 | CCCCCCCCCn1c(NCc2cc(Cl)ccc2O)nc2ccccc21 | 830
57 | O=C(Nc1cccc(-c2ccc(-c3nc4ccccc4[nH]3)cc2)c1)c1csnn1 | 1070
58 | CC[C@H]1CN2CC[C@@H]1C[C@H]2[C@H](O)c1cc(N2CCC(C)CC2)nc2ccc(OC)cc12 | 170
59 | CN1CCC(Oc2ccc(Nc3nccc(NCC(O)c4ccccc4)n3)cc2Cl)CC1 (stereo unspecified) | 790
60 | CC(C)NCc1ccc(-c2cccc(CN3CCC(c4ccccc4)CC3)c2)c(C(=O)NCC2CCCCC2)c1 | 850
61 | CC(C)(C)C1CCc2onc(C(=O)Nc3cc(Cl)ccc3O)c2C1 (stereo unspecified) | 780
62 | CCOc1ccc(C(C)NC(=O)c2cc(Cl)ccc2OC)cc1OCC (stereo unspecified) | 970
63 | COc1ccc(-c2ccc([N+](=O)[O-])cc2C(=O)NCC(C)Oc2ccc(C(F)(F)F)cc2)cc1 (stereo unspecified) | 550
64 | FC(F)(F)c1ccc(-c2cncc(-c3ccc(C(F)(F)F)cc3)n2)cc1 | 760
65 | O=C(Nc1ccc(CN2CCN(S(=O)(=O)c3ccc(Cl)s3)CC2)cc1)c1cccs1 | 890
66 | CN1CCN(c2cc(NC(=O)Nc3ccc(-c4ccncc4)c(Cl)c3)ccc2Br)CC1 | 900
67 | NC1=NC(c2ccccc2)(c2ccccc2)C(=O)N1CCCCc1ccccc1 | 760
68 | O=C(/C=C/c1ccc(Cl)c(Cl)c1)NCCCN1CCC(c2c[nH]c3ccccc23)CC1 | 970
69 | Cc1cc(NN=Cc2cccc(Cl)c2)c2ccc(F)cc2n1 | 240
70 | COc1ccc2c(=O)ccn(CCN3CCC(NCc4ccc5c(n4)NC(=O)CS5)CC3)c2c1 | 230
71 | COc1ccc(C(=O)[C@H]2C[C@@H]2CN2CC=C(c3c[nH]c4ccccc34)CC2)cc1 | 530
72 | O=S(=O)(c1ccc2cc[nH]c2c1)N1CCC[C@@H]1CCN1CCC(c2c[nH]c3cnccc23)CC1 | 1020

Row | SMILES | IC50 [nM]
73 | O=C(Nc1ccc(Cl)cc1)c1ccc(S(=O)(=O)NCC2CCN(CC3CCCCC3)CC2)cc1 | 860
74 | CCN(CC)CCNc1c2ccc(Cl)cc2nc2ccc(OC)nc12 | 740
75 | O=C(Nc1ccc(S(=O)(=O)N2CCCCC2)cc1)c1cc(-c2ccccc2O)n[nH]1 | 850
76 | COc1cccc(C2(NC[C@@H](O)[C@H](Cc3ccccc3)NC(=O)c3ccccc3)CCCCC2)c1 | 730
77 | Cc1[nH]c(C)c(-c2cccc(-c3ccc(OC(F)(F)F)cc3)c2)c(=O)c1Br | 410
78 | Cc1ccccc1C1CCN(c2ncc(C(=O)NC3CC3)cc2Cl)CC1 | 700
79 | c1cc2nc(CCc3nc4ccc(C5=N[C@H]6CCCC[C@H]6N5)cc4[nH]3)[nH]c2cc1C1=N[C@@H]2CCCC[C@@H]2N1 | 230
80 | CCN1CCC(N(CCCCCCc2ccc(C(F)(F)F)cc2)C(=O)Cn2c(CCc3cccc(F)c3F)cc(=O)c3ccccc32)CC1 | 930
81 | CCCCC(=O)Nc1nonc1-c1ccc(OCC)c(OCC)c1 | 910
82 | Cc1ccc(-c2nnc3c4ccccc4c(C)nn23)cc1S(=O)(=O)N1CCN(CCO)CC1 | 670
83 | CCOc1cc(C)ccc1C1CCN(CCCCNC(=O)c2ccc(-c3ccc(Cl)cn3)cc2)CC1 | 1610
84 | COc1c(C2CCN(CCCCNC(=O)c3cccc(-c4ccc(C(F)(F)F)cc4)c3)CC2)ccc2c1CCCC2 | 780
85 | CC(O)C1CCCCN1C(=O)c1cccc(-c2ccc(-c3nc4ccc(C(F)(F)F)cc4[nH]3)cc2)c1 (stereo unspecified) | 690
86 | O=C(NCCCCCCNCc1ccc(-c2ccccc2)cc1)Nc1ccc(Cl)c(Cl)c1 | 960
87 | COc1ccc2nccc(NCC3(O)CCN(CCc4ccc5c(c4)OCCO5)CC3)c2n1 | 600
88 | O=C(N[C@@H](Cc1ccccc1)C(=O)NCCN1CCCC1)c1ccc(O)c(-c2ccc(Cl)c(Cl)c2)c1 | 800
89 | Cc1cc(N[C@@H](Cc2ccccc2)C(=O)Nc2ccccc2)nc(NCCc2cccnc2)n1 | 1340
90 | CC1(C)CN(CCC2CCC(NC(=O)/C=C/c3ccccc3F)CC2)Cc2ccc(C#N)cc21 (stereo unspecified) | 1110
91 | CCc1c(CCNCCCCCCNCCc2ccc(Br)cc2)ccc(O)c1O | 900
92 | CC(c1cccc(S(=O)(=O)NCc2cccc(C(F)(F)F)c2)c1)N1CCC(N2CCCCC2)CC1 (stereo unspecified) | 690
93 | CCCCCCN1CCCN(Cc2ccc(C(=O)Nc3ccc(Cl)cc3)cc2)CC1 | 1210
94 | O=C(NCc1ccccc1)Nc1ccc(-c2ccc(-c3nc4ccc(C(F)(F)F)cc4[nH]3)cc2)cc1 | 670
95 | O=C(/C=C/c1ccc(Cl)c(Cl)c1)NCCCCCCN1CCN(C(=O)Nc2ccc(F)c(Cl)c2)CC1 | 940
96 | CN1CCCN(c2ccnc3cc4c(cc23)N(C(=O)c2ccc(Cl)cc2)CC4)CC1 | 790
